Results reported in PubChem BioAssay (NCI).
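Method: 48-hour compound exposure of cells in 96-well plates, five concentrations, linear interpolation of endpoints. TGI: total growth inhibition.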

Columns and labels:
Assay in all cases: NCI anticancer screen, dose series, 48 h
[1] = tested on: ACHN renal
[2] = tested on: HCC-2998 colon
[3] = tested on: NCI-H23 lung
[4] = tested on: LXFL 529 NSCLC
[5] = tested on: LOX IMVI melanoma
[6] = tested on: SK-MEL-28 melanoma
[7] = tested on: CCRF-CEM leukemia
[8] = tested on: IGROV1 ovarian
[9] = tested on: SNB-78 CNS
[10] = tested on: RPMI-8226 leukemia
[11] = tested on: EKVX NSCLC
[12] = tested on: CAKI-1 renal
[13] = tested on: SW-620 colon
[14] = tested on: MALME-3M melanoma
[15] = tested on: MOLT-4 leukemia
[16] = tested on: 786-0 renal
[17] = tested on: TK-10 renal
[18] = tested on: HOP-62 NSCLC
[19] = tested on: SN12C renal
[20] = tested on: A498 renal
[21] = tested on: OVCAR-4 ovarian
[22] = tested on: COLO 205 colon
[23] = tested on: SK-MEL-2 melanoma
[24] = tested on: M19-MEL melanoma
[25] = tested on: SNB-75 CNS
[26] = tested on: HCT-15 colon
[27] = tested on: SK-MEL-5 melanoma
[28] = tested on: U251 CNS
[29] = tested on: SK-OV-3 ovarian
[30] = tested on: OVCAR-8 ovarian
[31] = tested on: NCI-H460 lung
[32] = tested on: OVCAR-3 ovarian
[33] = tested on: DLD-1 colon
[34] = tested on: OVCAR-5 ovarian
[35] = tested on: UO-31 renal
[36] = tested on: SF-295 CNS
[37] = tested on: NCI-H226 lung
[38] = tested on: K-562 leukemia
[39] = tested on: XF 498 CNS
[40] = tested on: HOP-18 NSCLC
[41] = tested on: UACC-257 melanoma
[42] = tested on: DMS 114 small cell lung
[43] = tested on: KM12 colon
[44] = tested on: A549 NSCLC
[45] = tested on: M14 melanoma
[46] = tested on: SNB-19 CNS
[47] = tested on: SF-268 CNS
[48] = tested on: NCI-H522 lung
[49] = tested on: DMS 273 small cell lung
[50] = tested on: HOP-92 NSCLC
[51] = tested on: HL-60(TB) leukemia
[52] = tested on: UACC-62 melanoma
[53] = tested on: HT29 colon
[54] = tested on: KM20L2 colon
[55] = tested on: SF-539 CNS

O=C1NC(c2ccccc2)(c2ccccc2)C(=O)N1CCCCCCN1C(=O)NC(c2ccccc2)(c2ccccc2)C1=O
TGI [1]: > 100 µM | TGI [2]: > 100 µM | TGI [3]: 91.5 µM | TGI [4]: > 100 µM | TGI [5]: > 100 µM | TGI [6]: 89.2 µM | TGI [7]: > 100 µM | TGI [8]: > 100 µM | TGI [9]: > 100 µM | TGI [10]: > 100 µM | TGI [11]: > 100 µM | TGI [12]: > 100 µM | TGI [13]: > 100 µM | TGI [14]: 85.2 µM | TGI [15]: > 100 µM | TGI [16]: 49.3 µM | TGI [17]: 77 µM | TGI [18]: > 100 µM | TGI [19]: > 100 µM | TGI [20]: > 100 µM | TGI [21]: 27.6 µM | TGI [22]: > 100 µM | TGI [23]: 66.2 µM | TGI [24]: > 100 µM | TGI [25]: 19.6 µM | TGI [26]: > 100 µM | TGI [27]: 57.9 µM | TGI [28]: > 100 µM | TGI [29]: 77.2 µM | TGI [30]: > 100 µM | TGI [31]: > 100 µM | TGI [32]: > 100 µM | TGI [33]: > 100 µM | TGI [34]: > 100 µM | TGI [35]: > 100 µM | TGI [36]: 81.3 µM | TGI [37]: > 100 µM | TGI [38]: > 100 µM | TGI [39]: 30.9 µM | TGI [40]: > 100 µM | TGI [41]: > 100 µM | TGI [42]: > 100 µM | TGI [43]: > 100 µM | TGI [44]: > 100 µM | TGI [45]: > 100 µM | TGI [46]: 72.1 µM | TGI [47]: > 100 µM | TGI [48]: 84.2 µM | TGI [49]: > 100 µM | TGI [50]: 19.9 µM | TGI [51]: > 100 µM | TGI [52]: > 100 µM | TGI [53]: > 100 µM | TGI [54]: > 100 µM | TGI [55]: 81.3 µM
